Peptide text beside a SMILES is read from it.
Assays:
[1] = biological target: T1, Human Serum Albumin (HSA, fatty acid free) (Homo sapiens, UniProt P02768); assay: SPR binding of CLP-A to immobilized HSA; conditions: for Kd: Kd = 1/Ka, SPR; for Kd / Ka: 1X PBS pH 7.4, 5% DMSO; for Ka: SPR (BiacoreX, CM5 chip, HSA 9–11 kRU), CLP-A 50–200 μM injected in triplicate, dose-response fitted with rectangular hyperbola, global Rmax 2000, standard error of curve-fitting in brackets
T1 construct: purchased Sigma (Oakville, ON)
T1 sequence (P02768 25-609): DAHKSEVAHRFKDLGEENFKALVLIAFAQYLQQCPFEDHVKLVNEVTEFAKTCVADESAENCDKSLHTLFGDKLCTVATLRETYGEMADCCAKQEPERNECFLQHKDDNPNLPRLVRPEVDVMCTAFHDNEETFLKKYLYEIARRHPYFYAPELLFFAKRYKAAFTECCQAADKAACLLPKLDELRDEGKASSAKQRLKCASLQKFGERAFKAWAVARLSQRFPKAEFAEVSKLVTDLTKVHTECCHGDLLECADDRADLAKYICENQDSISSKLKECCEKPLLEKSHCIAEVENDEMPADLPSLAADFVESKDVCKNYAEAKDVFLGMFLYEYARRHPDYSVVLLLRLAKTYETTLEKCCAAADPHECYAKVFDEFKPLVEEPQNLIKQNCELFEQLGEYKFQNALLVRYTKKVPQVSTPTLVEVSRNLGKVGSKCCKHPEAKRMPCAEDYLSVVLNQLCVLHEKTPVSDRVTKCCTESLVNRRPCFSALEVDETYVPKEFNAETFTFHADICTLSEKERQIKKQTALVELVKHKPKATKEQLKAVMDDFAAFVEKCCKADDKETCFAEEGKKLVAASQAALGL
Description: Running buffer for all experiments was prepared by diluting a 10X phosphate-buffered saline (PBS) stock solution (100 mM phosphate buffer, 20.7 mM KCl, 1370 mM NaCl, pH 6.7) to a 1X PBS, pH 7.4 solution containing 5% DMSO. Running buffers were filtered and degassed daily before use.
Analyte solutions containing the CLP-A peptides were prepared by diluting the stock solution (10 mM in DMSO) into 1.05X PBS, giving a final 1X PBS, pH 7.4 buffer containing 5% DMSO (same as the running buffer).
All SPR measurements were performed at different temperatures using a BiacoreX instrument equipped with a research-grade CM5 carboxylated-dextran sensor chip (Biacore). The fluidic unit of the instrument was cleaned prior to experiments using the DESORB method (injections of 0.5% sodium dodecyl sulphate, followed by 50 mM glycine, pH 9.5) equipped in the instrument's software. On some occasions a “SUPER-CLEAN” method was also used (injections of 1% CH3COOH, 1 M NaHCO3, 10 mM HCl, and 6 M GndHCl).
The carboxylated-dextran sensor chips were preconditioned prior to HSA immobilization by priming the instrument 3 times with HBS-EP buffer, followed by 3 successive 1 min injections of 50 mM NaOH at 50 μL min^−1. HSA was covalently immobilized onto a CM5 sensor surface at 25°C using standard amine-coupling chemistry. Flow cell 1 (Fc1) and flow cell 2 (Fc2) were activated by a 7 min injection of a 1 : 1 mixture of 0.1 M NHS and 0.4 M EDC using a flow rate of 5 μL min^−1. Immediately after activation, HSA (30 μg mL^−1, 10 mM acetate buffer pH 5.3) was immobilized onto Fc2. A 7 min injection of 1 M EA (pH 8.5) was conducted over Fc1 and Fc2 to deactivate the surfaces. The final HSA concentration immobilized onto the chip was 9–11 kRU.
CLP-A solutions (50–200 μM) were injected in triplicate and flowed over reference and HSA surfaces for 2 min at a flow rate of […], followed by a dissociation phase of 3 min for all experimental temperatures. At the end of the CLP-A injection, the flowing solution was switched to the running buffer until the response returned to the original baseline. Instances where the baseline was not readily achieved, a short pulse of 50% (v/v) DMSO solution was injected at high flow rate to remove any remaining CLP-A. Data were collected at a rate of 5 Hz and processed using the BiaEvaluation V4.2 software. The equilibrium constant, Ka, was determined using the rectangular hyperbola equation [20]:
(1) Req=Rmax Ka[CLP-A]/1+Ka[CLP-A], where Req, Rmax, [CLP-A] are the measured response values, the binding site saturation value, and the concentration of CLP-A, respectively. Curve-fitting was done with Microcal Origin V7.1 using a global Rmax value of 2000.
CLP-A concentration was limited to below 200 μM due to the solubility of the peptide in the buffer. The affinity of interaction was estimated by first assuming that HSA-binding sites were equally available and second that only high affinity sites were occupied in the working concentration range [24]. The Kd and Ka values indicate that affinity increases as the temperature increased. […] To further elucidate the HSA/CLP-A interaction, thermodynamic parameters are extracted using the van't Hoff equation (2) ln Kd=ΔH/R(1/T)−ΔS/R, where R = 8.314 J mol^−1 K^−1. This yields ΔH and ΔS for the interaction to be 204 kJ mol^−1 and 746 J mol^−1 K^−1 respectively. The binding is overall endothermic. This indicates an association with the hydrophobic pockets of HSA and the opening of binding sites. Moreover, DMSO has been used to assist the solubility. Therefore, the entire solvation complex consisting of CLP-A, DMSO and H2O requires energy to expose the binding site. This energy plus the binding energy for interaction in the hydrophobic pockets of HSA result in an overall endothermic process. The large entropy of the endothermic process clearly indicate that binding is entropy-driven. This is due to contribution from breaking of the solvation complex and hydrophobic binding.

HSA = biological target: T2, HSA (Homo sapiens, UniProt P02768); assay: Far-UV circular dichroism, secondary structure of HSA upon CLP-A binding; conditions: HSA 18 μM + CLP-A 50 μM, 10 mM PBS, 5% DMSO, pH 7.4, room temperature, far-UV CD, CDNN V2.1, 210–260 nm
T2 construct: purchased Sigma (Oakville, ON)
T2 sequence (P02768 25-609): as above
Description: CD measurements of HSA (18 μM), HSA/CLP-A (18 μM, 50 μM) in 10 mM PBS, 5% DMSO, pH = 7.4 buffer were made with a Pistar-180 CD spectrometer (Applied Photophysics Ltd., Leatherhead, UK) at room temperature. The far-UV region was scanned from 260–180 nm in 0.5 nm steps at a scan rate of 10 nm min^−1 and a bandwidth of 6 nm using a 0.010 cm optical pathlength quartz cuvette. The secondary structure was estimated using the neural network deconvolution software CDNN V2.1 [22]. The near-UV region was scanned from 350–250 nm in 0.5 nm steps at a scan rate of 10 nm min^−1, and a bandwidth of 2 nm using a 10 mm optical pathlength cuvette.
In order to assess if any conformational changes were present upon CLP-A complexation with HSA, we compared the far-UV and near-UV CD spectra of HSA and HSA/CLP-A in the running buffer used in the Biacore experiments shown in Figure 5. CD spectra taken in the far-UV spectral region provide insight to the secondary structure of a protein. […] This region of the spectra corresponds to signals from the phenylalanine, tyrosine, and tryptophan residues on the protein and it provides insight to changes in the tertiary structure of the protein.

SMILES: CC[C@H](C)[C@@H]1NC(=O)[C@H](CC(C)C)NC(=O)[C@H](Cc2ccccc2)NC(=O)[C@H](Cc2ccccc2)NC(=O)[C@@H]2CCCN2C(=O)[C@@H]2CCCN2C(=O)[C@H](C(C)C)NC(=O)[C@H](CC(C)C)NC(=O)[C@H]([C@@H](C)CC)NC1=O [CLP-A, Cyclolinopeptide A] (cyclo(FFLIILVPP))
- Kd ([1]; 20°C): 1320 µM
- Ka ([1]; 20°C): 757 (33) M^−1
- Kd ([1]; 25°C): 593 µM
- Ka ([1]; 25°C): 1687 (20) M^−1
- Kd ([1]; 30°C): 142 µM
- Ka ([1]; 30°C): 7056 (36) M^−1
- Kd ([1]; 37°C): 20 µM
- Ka ([1]; 37°C): 50032 (1792) M^−1
- recognition kinetics of binding to the HSA-binding site ([1]; SPR sensorgrams, 50–200 μM, 20–37°C, gradual increase of response to steady state during injection): very slow recognition kinetics
- Secondary structure of HSA/CLP-A: Parallel (HSA; HSA alone 6): 6%
- Secondary structure of HSA/CLP-A: Antiparallel (HSA; HSA alone 8): 9%
- Secondary structure of HSA/CLP-A: Beta-Turn (HSA; HSA alone 15): 16%
- Secondary structure of HSA/CLP-A: Rndm. Coil (HSA; HSA alone 27): 29%
- Secondary structure of HSA/CLP-A: Helix (HSA; HSA alone 46): 41%

Reference: paper PMC3062964, “Biomolecular Interaction Study of Cyclolinopeptide A with Human Serum Albumin” (Journal of Biomedicine and Biotechnology, 2011)
